Assay results from the supplement of paper PMC11451515.

Legend:
Conditions in all cases: 48 h
[1] = test system: NOMO1; test: cell viability relative to DMSO control; higher = less cytotoxic
How it was run: (§1)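 Library compounds in DMSO were pin-dosed into 1536-well plates (5 μl) holding NOMO1 or SEM (500 cells/well) or P12-Ichikawa (1000 cells/well) leukemia cells, across an 11-point threefold series of 47 μM to 0.79 nM. Each cell line had been adapted for at least four passages in each medium. CellTiter-Glo One luminescence was read after 48 h at 37°C. Viability is the per-plate percentage relative to DMSO wells, with cell-free wells as background.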

[2] = test system: P12-Ichikawa; test: as above
How it was run: as §1

[3] = test system: SEM cells; test: as above
How it was run: as §1

[4] = test system: NOMO1; test: AUC of viability dose-response curve (% viability x log10 dose units); higher = less sensitive
How it was run: (§2)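 Leukemia cells adapted to each medium (500 or 1000 cells/well, 1536-well plates) were exposed to library compounds in DMSO for 48 h at 37°C at 11 threefold doses, 47 μM to 0.79 nM. Luminescence by CellTiter-Glo One was normalised per plate to DMSO and cell-free wells, then fitted with a four-parameter log-logistic curve on log10 dose. Curves above full viability were scaled and quality-control failures removed before area under the curve was integrated by trapezoidal rule.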

[5] = test system: P12-Ichikawa; test: as above
How it was run: as §2

[6] = test system: SEM cells; test: as above
How it was run: as §2

NNC(=O)c1ccncc1
cell viability [%]
Conditions	[1]	[2]	[3]
HPLM + 10% dialyzed FBS, 0.000781 µM	90.3	111	84.6
HPLM + 10% dialyzed FBS, 0.00234 µM	99.2	124	79.5
HPLM + 10% dialyzed FBS, 0.00702 µM	117	119	73.6
HPLM + 10% dialyzed FBS, 0.0211 µM	123	121	92.9
HPLM + 10% dialyzed FBS, 0.0632 µM	121	121	93.8
HPLM + 10% dialyzed FBS, 0.19 µM	124	127	86.6
HPLM + 10% dialyzed FBS, 0.569 µM	125	127	29.2
HPLM + 10% dialyzed FBS, 1.71 µM	123	117	42.5
HPLM + 10% dialyzed FBS, 5.12 µM	137	101	95.7
HPLM + 10% dialyzed FBS, 15.4 µM	131	103	92.3
HPLM + 10% dialyzed FBS, 46.1 µM	123	85.7	82.4
RPMI 5 mM glucose + 10% FBS, 0.000781 µM	108	106	107
RPMI 5 mM glucose + 10% FBS, 0.00234 µM	111	107	98.6
RPMI 5 mM glucose + 10% FBS, 0.00702 µM	114	111	97.2
RPMI 5 mM glucose + 10% FBS, 0.0211 µM	109	124	98.7
RPMI 5 mM glucose + 10% FBS, 0.0632 µM	122	111	116
RPMI 5 mM glucose + 10% FBS, 0.19 µM	135	114	115
RPMI 5 mM glucose + 10% FBS, 0.569 µM	123	122	37.3
RPMI 5 mM glucose + 10% FBS, 1.71 µM	115	120	46.7
RPMI 5 mM glucose + 10% FBS, 5.12 µM	128	116	91.6
RPMI 5 mM glucose + 10% FBS, 15.4 µM	119	107	94.9
RPMI 5 mM glucose + 10% FBS, 46.1 µM	130	84.7	87.6
RPMI 5 mM glucose + 10% dialyzed FBS, 0.000781 µM	120	115	107
RPMI 5 mM glucose + 10% dialyzed FBS, 0.00234 µM	117	122	110
RPMI 5 mM glucose + 10% dialyzed FBS, 0.00702 µM	110	113	92.4
RPMI 5 mM glucose + 10% dialyzed FBS, 0.0211 µM	117	119	97.2
RPMI 5 mM glucose + 10% dialyzed FBS, 0.0632 µM	119	116	98.1
RPMI 5 mM glucose + 10% dialyzed FBS, 0.19 µM	118	127	105
RPMI 5 mM glucose + 10% dialyzed FBS, 0.569 µM	119	118	37.2
RPMI 5 mM glucose + 10% dialyzed FBS, 1.71 µM	126	121	34.9
RPMI 5 mM glucose + 10% dialyzed FBS, 5.12 µM	124	103	101
RPMI 5 mM glucose + 10% dialyzed FBS, 15.4 µM	126	108	95.6
RPMI 5 mM glucose + 10% dialyzed FBS, 46.1 µM	125	76.2	82.8

AUC of viability dose-response curve
Conditions	HPLM + 10% dialyzed FBS	RPMI 5 mM glucose + 10% FBS	RPMI 5 mM glucose + 10% dialyzed FBS
[4]	454	444	456
[5]	453	468	460

CC(=O)O[C@@]12CO[C@@H]1C[C@H](O)[C@]3(C)[C@@H]2[C@H](OC(=O)C4=CC=CC=C4)[C@]5(O)C[C@H](O)/C(=C(/[C@@H](O)C3=O)C5(C)C)C
cell viability [%]
Conditions	[1]	[2]	[3]
HPLM + 10% dialyzed FBS, 0.000781 µM	109	97.5	84.3
HPLM + 10% dialyzed FBS, 0.00234 µM	133	106	108
HPLM + 10% dialyzed FBS, 0.00702 µM	123	72.1	43.5
HPLM + 10% dialyzed FBS, 0.0211 µM	122	115	110
HPLM + 10% dialyzed FBS, 0.0632 µM	130	114	106
HPLM + 10% dialyzed FBS, 0.19 µM	131	117	111
HPLM + 10% dialyzed FBS, 0.569 µM	114	120	116
HPLM + 10% dialyzed FBS, 1.71 µM	121	120	107
HPLM + 10% dialyzed FBS, 5.12 µM	117	98.1	90.2
HPLM + 10% dialyzed FBS, 15.4 µM	36.1	36.6	35.8
HPLM + 10% dialyzed FBS, 46.1 µM	29.1	13.7	16.3
RPMI 5 mM glucose + 10% FBS, 0.000781 µM	98.1	100	70.4
RPMI 5 mM glucose + 10% FBS, 0.00234 µM	112	110	71.5
RPMI 5 mM glucose + 10% FBS, 0.00702 µM	111	69.7	19.1
RPMI 5 mM glucose + 10% FBS, 0.0211 µM	116	113	71
RPMI 5 mM glucose + 10% FBS, 0.0632 µM	118	116	64.7
RPMI 5 mM glucose + 10% FBS, 0.19 µM	108	119	72.3
RPMI 5 mM glucose + 10% FBS, 0.569 µM	105	122	70.1
RPMI 5 mM glucose + 10% FBS, 1.71 µM	113	113	65.2
RPMI 5 mM glucose + 10% FBS, 5.12 µM	109	88.6	54.2
RPMI 5 mM glucose + 10% FBS, 15.4 µM	51.8	28.7	18.1
RPMI 5 mM glucose + 10% FBS, 46.1 µM	13.3	7.33	8.94
RPMI 5 mM glucose + 10% dialyzed FBS, 0.000781 µM	89.8	100	90.8
RPMI 5 mM glucose + 10% dialyzed FBS, 0.00234 µM	92.8	114	99.6
RPMI 5 mM glucose + 10% dialyzed FBS, 0.00702 µM	106	77.5	43.2
RPMI 5 mM glucose + 10% dialyzed FBS, 0.0211 µM	121	117	116
RPMI 5 mM glucose + 10% dialyzed FBS, 0.0632 µM	113	113	105
RPMI 5 mM glucose + 10% dialyzed FBS, 0.19 µM	114	112	110
RPMI 5 mM glucose + 10% dialyzed FBS, 0.569 µM	106	121	121
RPMI 5 mM glucose + 10% dialyzed FBS, 1.71 µM	111	119	112
RPMI 5 mM glucose + 10% dialyzed FBS, 5.12 µM	115	104	75.1
RPMI 5 mM glucose + 10% dialyzed FBS, 15.4 µM	45.1	43.9	29.9
RPMI 5 mM glucose + 10% dialyzed FBS, 46.1 µM	19.3	18.5	13

AUC of viability dose-response curve
Conditions	HPLM + 10% dialyzed FBS	RPMI 5 mM glucose + 10% FBS	RPMI 5 mM glucose + 10% dialyzed FBS
[4]	423	430	430
[5]	421	411	426

COC1=CC2=C(C=C1CC3=C(F)C(=CC=C3)Cl)C(=O)\C(=C/N2[C@H](CO)C(C)C)C(O)=O
cell viability [%]
Conditions	[1]	[2]	[3]
HPLM + 10% dialyzed FBS, 0.000781 µM	122	125	120
HPLM + 10% dialyzed FBS, 0.00234 µM	142	123	120
HPLM + 10% dialyzed FBS, 0.00702 µM	123	122	119
HPLM + 10% dialyzed FBS, 0.0211 µM	128	107	26.7
HPLM + 10% dialyzed FBS, 0.0632 µM	114	121	115
HPLM + 10% dialyzed FBS, 0.19 µM	131	119	133
HPLM + 10% dialyzed FBS, 0.569 µM	124	114	113
HPLM + 10% dialyzed FBS, 1.71 µM	118	115	106
HPLM + 10% dialyzed FBS, 5.12 µM	127	110	117
HPLM + 10% dialyzed FBS, 15.4 µM	89.6	95.9	93.7
HPLM + 10% dialyzed FBS, 46.1 µM	27.7	13.4	23.7
RPMI 5 mM glucose + 10% FBS, 0.000781 µM	115	–	–
RPMI 5 mM glucose + 10% FBS, 0.00234 µM	117	–	–
RPMI 5 mM glucose + 10% FBS, 0.00702 µM	109	–	–
RPMI 5 mM glucose + 10% FBS, 0.0211 µM	104	–	–
RPMI 5 mM glucose + 10% FBS, 0.0632 µM	115	–	–
RPMI 5 mM glucose + 10% FBS, 0.19 µM	129	–	–
RPMI 5 mM glucose + 10% FBS, 0.569 µM	108	–	–
RPMI 5 mM glucose + 10% FBS, 1.71 µM	102	–	–
RPMI 5 mM glucose + 10% FBS, 5.12 µM	110	–	–
RPMI 5 mM glucose + 10% FBS, 15.4 µM	102	–	–
RPMI 5 mM glucose + 10% FBS, 46.1 µM	14.7	–	–
RPMI 5 mM glucose + 10% dialyzed FBS, 0.000781 µM	110	116	–
RPMI 5 mM glucose + 10% dialyzed FBS, 0.00234 µM	118	125	–
RPMI 5 mM glucose + 10% dialyzed FBS, 0.00702 µM	138	124	–
RPMI 5 mM glucose + 10% dialyzed FBS, 0.0211 µM	130	117	–
RPMI 5 mM glucose + 10% dialyzed FBS, 0.0632 µM	131	125	–
RPMI 5 mM glucose + 10% dialyzed FBS, 0.19 µM	129	121	–
RPMI 5 mM glucose + 10% dialyzed FBS, 0.569 µM	123	119	–
RPMI 5 mM glucose + 10% dialyzed FBS, 1.71 µM	118	112	–
RPMI 5 mM glucose + 10% dialyzed FBS, 5.12 µM	123	103	–
RPMI 5 mM glucose + 10% dialyzed FBS, 15.4 µM	115	67.3	–
RPMI 5 mM glucose + 10% dialyzed FBS, 46.1 µM	24.7	10	–

AUC of viability dose-response curve
Conditions	HPLM + 10% dialyzed FBS	RPMI 5 mM glucose + 10% FBS	RPMI 5 mM glucose + 10% dialyzed FBS
[4]	445	452	454
[5]	446	421	423

CC(C(=O)O)c1ccc(-c2ccccc2)c(F)c1 (stereo unspecified)
AUC of viability dose-response curve
Conditions	[4]	[5]	[6]
HPLM + 10% dialyzed FBS	464	424	442
RPMI 5 mM glucose + 10% FBS	476	432	417
RPMI 5 mM glucose + 10% dialyzed FBS	459	424	447
